Experimental data taken from PMC5510229, “BCAT1 controls metabolic reprogramming in activated human macrophages and is associated with inflammatory diseases” (Nature Communications, 2017).

Tested on: mouse peritoneal macrophages
Assay: Mouse i.p. injection of LPS and ERG240, peritoneal macrophages analysed
Format: in vivo, C57BL/6 mice
Protocol: Figure 4 Bcat1 inhibition blocks itaconate production in vivo and polarizes peritoneal macrophages. Mouse peritoneal macrophages from vehicle (saline), LPS-injected (1.5 mg kg^−1) or LPS+ERG240 (500 mg kg^−1)–injected mice were isolated and pooled 24 h following i.p. injection (n=6 mice per group). Irg1 protein (a), mRNA (b) levels, as well as itaconate measurements by GC/MS (c) are shown. […] Peritoneal macrophages were collected 24 h following the LPS injection. n=3 mice/group. (d) Protein–protein interaction (PPI) network in 100 top (97 annotated) differentially expressed genes between LPS and LPS+ERG240 treated mouse peritoneal macrophages illustrated by STRING (high confidence score=0.7). The IFN-inducible GTPase cluster is shown within a dashed circle. (e) Distribution of the fold changes and the FDR-adjusted P values (−log10 (FDR)) for the comparison between LPS and LPS+ERG240 treated macrophages. The IFN- inducible GTPase genes, M1-like, M2-like and extracellular matrix transcripts are shown in blue. (f) Fragments per kilobase of transcript per Million mapped reads (FPKM) values for Nos2, Il6 are shown in vehicle, LPS and LPS+ERG240-treated peritoneal macrophages. (g) FPKM values for Ifit1, Ifit2, Ifit3, Gbp1, Gbp2, Gbp4, Gbp7, Mrc1, Klf4, Cd36, Fn1, Mmp9, Gsn and Spp1. FPKM=1 is shown as a dashed line to denote minimal expression levels. All transcripts analysed by RNA-seq (f,g) show significant FPKM upon ERG240 treatment when compared to LPS group (FDR<10^−73). Error bars are s.e.m. Significance was tested using one-way ANOVA. *P<0.05 by ANOVA.
The procedure was performed by Washington Biotechnology Inc. (Baltimore, MD). […] Same dose of ERG240 was administered a second time, 8 h following the first injection of LPS. Peritoneal macrophages were harvested 24 h after the LPS injection and results from three groups (vehicle, LPS only, LPS+ERG240; n=6 mice in each group) were analysed in terms of IRG1 and itaconate level measurements.
For itaconate, cells pellets containing 1.5 × 10^6 hMDMs were quenched with 400 μl of methanol, previously chilled at −20 °C. After addition of 400 μl of cold (4 °C) ultrapure water, cell pellets were vortexed briefly and then allowed to stand for 10 min on ice. Following addition of 400 μl of GC/MS grade dichloromethane, previously chilled at −20 °C, samples were vortexed again and centrifuged at 14,000g for 10 min at 4 °C. The aqueous layer of the samples was collected and lyophilized. Dried materials were dissolved in 40 μl of MOX solution, which is prepared by allowing 20 mg of methoxamine HCl (Sigma Aldrich) to dissolve in 500 μl pyridine for 30 min at room temperature. Metabolites dissolved in MOX were incubated at 45 °C for 60 min, derivatized by adding 60 μl of N-methyl-N-(trimethylsilyl) trifluoroacetamide (MSFTA, Mecherey-Nagel) and incubated at 45 °C for 30 min. After a brief centrifugation, derivatized metabolites were transferred into clean GC/MS vials and analysed for the presence of itaconic acid (itaconate) using a 7890A GC System (Agilent Technologies) equipped with an Agilent J&W DB-5ms column (30 m, 0.25 mm, 0.25 μm), connected to an 5975C Triple-Axis MS Detector (Agilent Technologies) and outfitted with an autosampler. The MS source was held at 230 °C and the quadrupole at 150 °C. The GC oven temperature was held at 50 °C for 5 min, increased to 240 °C at a rate of 10 °C min^−1, held at 240 °C for 5 min and increased to 300 °C at a rate of 10 °C min^−1. A volume of 1 μl was injected in the system in a 1:3 split mode. The amount of itaconate present in the sample was determined after peak integration. For citrate, the frozen cell pellets were re-suspended in ice-cold ethanol-phosphate buffer. Cells were lysed by three freeze-thaw cycles and sonication. Samples were centrifuged and the supernatant was used for further analysis. […]

[1] = LPS 1.5 mg kg^−1 + ERG240 500 mg kg^−1 i.p., 24 h
[2] = LPS+ERG240 vs LPS, peritoneal macrophages, 24 h

CC(=O)C(C)CCC(=O)O (stereo not drawn) [ERG240]
itaconate in peritoneal macrophages, sequential treatment (ERG240 administered 3 h after the first LPS injection, collected 24 h): equally decreased
Il6, Gbp4 expression levels, sequential treatment (ERG240 administered following 3 hours of LPS, qRT-PCR): inhibitory effect
Irg1 mRNA and protein levels in peritoneal macrophages [1]: reduction
itaconate in peritoneal macrophages [1]: significant decrease
IFN-inducible GTPase signature genes and M1-like markers (Nos2, Il6), RNA-seq [2]: down-regulated
M2-like and extracellular matrix transcripts, RNA-seq [2]: up-regulated
